Where a SMILES comes first, the peptide text is derived from it. [ ]: non-standard residue; d: D form. NMeF = CN[C@@H](Cc1ccccc1)C(=O)O; dNMeF = CN[C@H](Cc1ccccc1)C(=O)O; NMeL = CN[C@@H](CC(C)C)C(=O)O; dNMeL = CN[C@H](CC(C)C)C(=O)O; NMeNle = CCCC[C@H](NC)C(=O)O; NMeV = CN[C@H](C(=O)O)C(C)C; NMeA = CN[C@@H](C)C(=O)O; Nle = CCCC[C@H](N)C(=O)O; dNMeA = CN[C@H](C)C(=O)O; Sar = CNCC(=O)O
conditions: PAMPA

Q: For `CCCC[C@@H]1NC(=O)[C@H](CC(C)C)NC(=O)[C@@H]2CCCN2C(=O)[C@H]2CCCN2C(=O)[C@@H](C)NC(=O)[C@H]2CCCN2C(=O)[C@@H](CC(C)C)NC(=O)[C@@H](C)N(C)C(=O)[C@H](CC(C)C)N(C)C(=O)[C@@H](C)N(C)C1=O` [Design D10.40, MET *DALA *LEU *DALA DLEU DPRO DALA DPRO PRO LEU] (cyclo(L[Nle][dNMeA][NMeL][dNMeA][dL][dP][dA][dP]P)), which PAMPA_Papp_Avg is on record?
A: 7.09E-07

Q: What about the PAMPA_R1 of the same compound?
A: 6.40E-07

Q: And the PAMPA_R3?
A: 6.95E-07

Q: What does the source list for `CCCC[C@H]1C(=O)N[C@@H]([C@@H](C)CC)C(=O)N2CCC[C@H]2C(=O)N2CCC[C@@H]2C(=O)N[C@H](CC(C)C)C(=O)N[C@@H]([C@@H](C)CC)C(=O)N2CCC[C@@H]2C(=O)N[C@H](Cc2ccccc2)C(=O)N[C@@H](C(C)C)C(=O)N(C)[C@H](CC(C)C)C(=O)N1C` [Design D10.44, VAL *DLEU *MET ILE PRO DPRO DLEU ILE DPRO DPHE] (cyclo(IP[dP][dL]I[dP][dF]V[dNMeL][NMeNle]))?
A: PAMPA_Papp_Avg: BQL; PAMPA_R1: BQL; PAMPA_R3: BQL

Q: With `CC[C@H](C)[C@@H]1NC(=O)[C@H](Cc2ccccc2)N(C)C(=O)[C@H]2CCCN2C(=O)[C@@H](CC(C)C)N(C)C(=O)[C@@H](Cc2ccccc2)NC(=O)[C@H](C(C)C)NC(=O)[C@H](CC(C)C)NC(=O)[C@H]2CCCN2C(=O)[C@H](CC(C)C)NC(=O)[C@@H]2CCCN2C1=O` [Design D10.50, LEU VAL DPHE *DLEU DPRO *PHE ILE PRO LEU DPRO] (cyclo(IPL[dP]LV[dF][dNMeL][dP][NMeF])) as the compound, how does the PAMPA_Papp_Avg read?
A: 6.28E-07

Q: What about the PAMPA_R1 of the same compound?
A: 8.97E-07

Q: What about the PAMPA_R3 of the same compound?
A: 6.88E-07

Q: With `CC[C@H](C)[C@@H]1NC(=O)[C@@H](CC(C)C)NC(=O)[C@H](CC(C)C)NC(=O)[C@H]2CCCN2C(=O)[C@@H]2CCCN2C(=O)[C@H](C)NC(=O)[C@H](Cc2ccccc2)N(C)C(=O)[C@@H](C(C)C)NC(=O)[C@H](Cc2ccccc2)N(C)C(=O)[C@@H](Cc2ccccc2)N(C)C1=O` [Design D10.51, ILE *DPHE *PHE DVAL *PHE ALA PRO DPRO LEU DLEU] (cyclo(AP[dP]L[dL]I[dNMeF][NMeF][dV][NMeF])) as the compound, how does the PAMPA_Papp_Avg read?
A: BQL

Q: And the PAMPA_R1?
A: BQL

Q: What about the PAMPA_R3 of the same compound?
A: BQL

Q: Which results are given for `CC[C@H](C)[C@@H]1NC(=O)[C@@H]2CCCN2C(=O)[C@H](C)NC(=O)[C@@H](Cc2ccccc2)N(C)C(=O)[C@H](C)NC(=O)[C@@H]2CCCN2C(=O)[C@@H](Cc2ccccc2)N(C)C(=O)[C@H](Cc2ccccc2)N(C)C(=O)[C@H](CC(C)C)N(C)C(=O)[C@@H](C(C)C)NC1=O` [Design D10.52, ILE DVAL *LEU *PHE *DPHE PRO ALA *DPHE ALA PRO] (cyclo(API[dV][NMeL][NMeF][dNMeF]PA[dNMeF]))?
A: PAMPA_Papp_Avg: BQL; PAMPA_R1: BQL; PAMPA_R3: BQL

Q: Which PAMPA_Papp_Avg does the source give for `CC(C)C[C@@H]1C(=O)N[C@H](C(C)C)C(=O)N[C@@H](C)C(=O)N2CCC[C@H]2C(=O)N2CCC[C@H]2C(=O)N[C@@H](C)C(=O)N2CCC[C@@H]2C(=O)N[C@@H](Cc2ccccc2)C(=O)N2CCC[C@H]2C(=O)N[C@@H](C(C)C)C(=O)N1C` [Design D10.53, ALA DPRO PHE PRO VAL *DLEU DVAL ALA PRO PRO] (cyclo(APPA[dP]FPV[dNMeL][dV])) here?
A: BQL

Q: And the PAMPA_R1?
A: BQL

Q: And the PAMPA_R3?
A: BQL

Q: Which results are given for `CC(C)C[C@@H]1NC(=O)[C@@H](Cc2ccccc2)NC(=O)[C@@H]2CCCN2C(=O)[C@H]2CCCN2C(=O)[C@@H]2CCCN2C(=O)[C@H](C)NC(=O)[C@H](Cc2ccccc2)N(C)C(=O)[C@H]2CCCN2C(=O)[C@@H](CC(C)C)NC(=O)[C@@H](C(C)C)NC1=O` [Design D10.54, DVAL DLEU DPRO *PHE ALA PRO DPRO PRO DPHE LEU] (cyclo([dF]L[dV][dL][dP][NMeF]AP[dP]P))?
A: PAMPA_Papp_Avg: BQL; PAMPA_R1: BQL; PAMPA_R3: BQL

Q: Which PAMPA_Papp_Avg does the source give for `CC[C@H](C)[C@@H]1NC(=O)[C@H](C)NC(=O)[C@@H](CC(C)C)NC(=O)[C@H](CC(C)C)N(C)C(=O)[C@H](CC(C)C)NC(=O)[C@@H](Cc2ccccc2)N(C)C(=O)[C@@H]2CCCN2C(=O)[C@H]([C@@H](C)CC)NC(=O)[C@H](Cc2ccccc2)N(C)C(=O)[C@@H](CC(C)C)NC1=O` [Design D10.55, DLEU ALA ILE DLEU *PHE ILE PRO *DPHE LEU *LEU] (cyclo(AI[dL][NMeF]IP[dNMeF]L[NMeL][dL])) here?
A: BQL

Q: What about the PAMPA_R1 of the same compound?
A: BQL

Q: What about the PAMPA_R3 of the same compound?
A: BQL

Q: Which results are given for `CC(C)C[C@H]1C(=O)N[C@@H](C)C(=O)N(C)CC(=O)N2CCC[C@@H]2C(=O)N(C)[C@@H](C(C)C)C(=O)N[C@@H](C(C)C)C(=O)N2CCC[C@H]2C(=O)N2CCC[C@@H]2C(=O)N[C@@H](C)C(=O)N[C@H](C(C)C)C(=O)N1C` [Design D10.66, PRO DPRO ALA DVAL *LEU ALA *GLY DPRO *VAL VAL] (cyclo(A[Sar][dP][NMeV]VP[dP]A[dV][NMeL]))?
A: PAMPA_Papp_Avg: BQL; PAMPA_R1: BQL; PAMPA_R3: BQL

Q: Which PAMPA_Papp_Avg does the source give for `CC(C)C[C@@H]1NC(=O)[C@H](CC(C)C)NC(=O)[C@H](C(C)C)NC(=O)[C@H](C)NC(=O)[C@@H]2CCCN2C(=O)[C@H]2CCCN2C(=O)[C@@H]2CCCN2C(=O)[C@H](C)N(C)C(=O)[C@@H](CC(C)C)N(C)C(=O)[C@@H]2CCCN2C(=O)[C@H](Cc2ccccc2)NC1=O` [Design D11.7, PHE PRO *DLEU *ALA PRO DPRO PRO ALA VAL LEU LEU] (cyclo(AVLLFP[dNMeL][NMeA]P[dP]P)) here?
A: BQL

Q: What about the PAMPA_R1 of the same compound?
A: BQL

Q: And the PAMPA_R3?
A: BQL

Q: With `CC[C@H](C)[C@@H]1NC(=O)[C@H]2CCCN2C(=O)[C@H](C(C)C)NC(=O)[C@H](C(C)C)N(C)C(=O)[C@@H](C(C)C)NC(=O)[C@H](C(C)C)NC(=O)[C@H]2CCCN2C(=O)[C@@H]2CCCN2C(=O)[C@H](C)NC(=O)[C@@H](CC(C)C)N(C)C(=O)[C@H]2CCCN2C1=O` [Design D11.8, PRO DPRO VAL DVAL *VAL VAL DPRO ILE DPRO *DLEU ALA] (cyclo(AP[dP]V[dV][NMeV]V[dP]I[dP][dNMeL])) as the compound, how does the PAMPA_Papp_Avg read?
A: BQL

Q: And the PAMPA_R1?
A: BQL

Q: What about the PAMPA_R3 of the same compound?
A: BQL

Q: For `CC(C)C[C@@H]1NC(=O)[C@@H](C(C)C)NC(=O)[C@@H]2CCCN2C(=O)[C@H]2CCCN2C(=O)[C@H](Cc2ccccc2)NC(=O)[C@@H](C)NC(=O)[C@@H](CC(C)C)N(C)C(=O)[C@@H]2CCCN2C(=O)[C@H]2CCCN2C(=O)[C@@H](C(C)C)NC(=O)[C@@H](C)N(C)C1=O` [Design D11.12, DVAL DPRO PRO *DLEU DALA PHE DPRO PRO DVAL LEU *DALA] (cyclo([dNMeL][dA]F[dP]P[dV]L[dNMeA][dV][dP]P)), which PAMPA_Papp_Avg is on record?
A: BQL

Q: And the PAMPA_R1?
A: BQL

Q: What about the PAMPA_R3 of the same compound?
A: BQL

Q: Which PAMPA_Papp_Avg does the source give for `CC[C@H](C)[C@@H]1NC(=O)[C@H](CC(C)C)NC(=O)[C@H](Cc2ccccc2)NC(=O)[C@@H](C)NC(=O)[C@H]2CCCN2C(=O)[C@@H]2CCCN2C(=O)[C@H]2CCCN2C(=O)[C@H](CC(C)C)NC(=O)[C@@H](C(C)C)NC(=O)[C@@H](CC(C)C)N(C)C(=O)[C@@H]2CCCN2C1=O` [Design D11.17, PRO *DLEU DVAL LEU DPRO PRO DPRO DALA PHE LEU ILE] (cyclo([dP][dA]FLIP[dNMeL][dV]L[dP]P)) here?
A: BQL

Q: And the PAMPA_R1?
A: BQL

Q: And the PAMPA_R3?
A: BQL

Q: For `CC[C@@H](C)[C@H]1NC(=O)[C@@H](C)NC(=O)[C@@H](CC(C)C)NC(=O)[C@@H](Cc2ccccc2)NC(=O)[C@@H]2CCCN2C(=O)[C@@H]2CCCN2C(=O)[C@@H](CC(C)C)N(C)C(=O)[C@@H](C)N(C)C(=O)[C@@H](CC(C)C)NC(=O)[C@H](CC(C)C)NC(=O)[C@@H](Cc2ccccc2)NC1=O` [Design D11.18, DALA DILE DPHE LEU DLEU *DALA *DLEU PRO PRO DPHE DLEU] (cyclo(L[dL][dNMeA][dNMeL]PP[dF][dL][dA][dI][dF])), which PAMPA_Papp_Avg is on record?
A: BQL

Q: What about the PAMPA_R1 of the same compound?
A: BQL

Q: What about the PAMPA_R3 of the same compound?
A: BQL

Q: For `CC[C@@H](C)[C@H]1NC(=O)[C@@H](CC(C)C)NC(=O)[C@@H](CC(C)C)NC(=O)[C@@H](C)NC(=O)[C@@H](CC(C)C)NC(=O)[C@H]2CCCN2C(=O)[C@@H]2CCCN2C(=O)[C@H]2CCCN2C(=O)[C@@H](C)NC(=O)[C@@H](CC(C)C)N(C)C(=O)[C@H]2CCCN2C1=O` [Design D11.19, DILE DPRO *DLEU DALA DPRO PRO DPRO DLEU DALA DLEU DLEU] (cyclo([dP][dL][dA][dL][dL][dI][dP][dNMeL][dA][dP]P)), which PAMPA_Papp_Avg is on record?
A: BQL

Q: What about the PAMPA_R1 of the same compound?
A: BQL

Q: And the PAMPA_R3?
A: BQL

Q: For `CC[C@@H](C)[C@H]1NC(=O)[C@@H](CC(C)C)N(C)C(=O)[C@@H](CC(C)C)N(C)C(=O)[C@H](CC(C)C)NC(=O)[C@@H](CC(C)C)N(C)C(=O)[C@H](Cc2ccccc2)NC(=O)[C@H](CC(C)C)NC(=O)[C@@H]2CCCN2C(=O)[C@H]2CCCN2C(=O)[C@@H]2CCCN2C(=O)[C@H](CC(C)C)NC1=O` [Design D11.22, PHE *DLEU LEU *DLEU *DLEU DILE LEU PRO DPRO PRO LEU] (cyclo(LF[dNMeL]L[dNMeL][dNMeL][dI]LP[dP]P)), which PAMPA_Papp_Avg is on record?
A: BQL

Q: What about the PAMPA_R1 of the same compound?
A: BQL

Q: What about the PAMPA_R3 of the same compound?
A: BQL

Q: With `CC[C@H](C)[C@@H]1NC(=O)[C@H]2CCCN2C(=O)[C@@H](CC(C)C)N(C)C(=O)[C@H](CC(C)C)NC(=O)[C@@H](C)N(C)C(=O)[C@H]2CCCN2C(=O)[C@@H](CC(C)C)NC(=O)[C@@H](C(C)C)NC(=O)[C@H](CC(C)C)NC(=O)[C@@H](C)NC(=O)[C@@H](Cc2ccccc2)NC(=O)[C@H]2CCCN2C1=O` [Design D12.2, ILE DPRO DPHE DALA LEU DVAL DLEU DPRO *DALA LEU *DLEU DPRO] (cyclo(I[dP][dF][dA]L[dV][dL][dP][dNMeA]L[dNMeL][dP])) as the compound, how does the PAMPA_Papp_Avg read?
A: BQL

Q: What about the PAMPA_R1 of the same compound?
A: BQL

Q: What about the PAMPA_R3 of the same compound?
A: BQL

Q: Which PAMPA_Papp_Avg does the source give for `CC[C@@H](C)[C@H]1NC(=O)[C@H](C(C)C)NC(=O)[C@H]2CCCN2C(=O)[C@@H]2CCCN2C(=O)[C@H](Cc2ccccc2)NC(=O)[C@@H](CC(C)C)NC(=O)[C@H](Cc2ccccc2)NC(=O)[C@@H]2CCCN2C(=O)[C@@H](C)N(C)C(=O)[C@@H]2CCCN2C(=O)[C@H](CC(C)C)NC(=O)[C@H](CC(C)C)N(C)C1=O` [Design D12.4, PRO *DALA PRO PHE DLEU PHE PRO DPRO VAL DILE *LEU LEU] (cyclo(FP[dP]V[dI][NMeL]LP[dNMeA]PF[dL])) here?
A: BQL

Q: And the PAMPA_R1?
A: BQL

Q: What about the PAMPA_R3 of the same compound?
A: BQL
